Marks after values point to notes of the source that are not given here.

The term Emax denotes the size of the effect at its maximum, as opposed to the concentration needed.

The assay addresses T1, GCase (GBA) in human fibroblast cell line GM10915 harboring the L444P GBA mutation (Homo sapiens, UniProt P04062, L483P).
T1 construct: Human fibroblast cell line GM10915 harboring the L444P GBA mutation; host or cells: GM10915 human fibroblasts
T1 sequence (P04062 40-536 L483P): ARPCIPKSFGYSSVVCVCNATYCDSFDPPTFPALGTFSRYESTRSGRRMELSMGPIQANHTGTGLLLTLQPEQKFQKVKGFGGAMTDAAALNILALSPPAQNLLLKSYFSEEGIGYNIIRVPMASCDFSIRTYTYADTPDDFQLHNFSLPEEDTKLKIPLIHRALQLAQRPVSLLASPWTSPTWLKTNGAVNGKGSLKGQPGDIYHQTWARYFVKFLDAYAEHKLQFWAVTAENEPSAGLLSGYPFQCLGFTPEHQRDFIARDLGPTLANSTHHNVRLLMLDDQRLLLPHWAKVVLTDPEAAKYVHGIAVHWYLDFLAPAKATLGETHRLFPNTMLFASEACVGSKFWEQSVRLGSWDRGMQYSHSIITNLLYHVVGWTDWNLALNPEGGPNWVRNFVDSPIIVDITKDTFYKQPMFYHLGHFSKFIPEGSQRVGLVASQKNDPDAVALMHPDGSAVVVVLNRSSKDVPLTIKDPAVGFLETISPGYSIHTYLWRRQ
The experiment in a line: GCase activity assay (4-MUG substrate, normalised to crystal violet staining) in L444P GBA fibroblasts. The format is cell-based. Conditions: 5 days exposure; for GBA EC1.5: concentration giving 150% GCase activity (1.5-fold induction), 8-point dose range; for Emax: maximum percent GCase activity relative to untreated cells in the dose range tested. The procedure, abridged:
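Patient fibroblasts GM10915 (L444P GBA) exposed to compounds for five days over an 8-point range, with fresh dosing every 2–3 days. Intact-cell GCase measured with 2.5 mM 4-MUG at pH 4.0 for 23 h at 37 °C (ex/em 365/445 nm), normalised to crystal violet, as % of PBS basal; Emax is the maximum reached.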

As to `Nc1c(Br)cc(Br)cc1CN[C@H]1CC[C@H](O)CC1` [Ambroxol, reference compound], the “GBA EC1.5” value is >20* *The 1.5-fold induction criteria was not reached within the tested concentration range μM.

As for `CCCCCO[C@H]1CC[C@H](NC(=O)c2cnn3c(C)cc(C)nc23)CC1` [LTI-291, reference compound], the “GBA EC1.5” value came to 112 µM.

On to `Cn1ncc(CC2(C3=NOCC(CN4CCCCC4)O3)CCNCC2)n1` (stereo not shown) [compound 507], for which the “GBA EC1.5” value was determined as 35 µM and the Emax stood at 149%.

For `Cc1cncc(CC2(C3=NOCC(CN4CCCCC4)O3)CCNCC2)c1` (stereo not shown) [compound 520], the “GBA EC1.5” value was determined as 13 µM and the Emax is 136%.

Regarding `CC(C)c1ccc(CC2(C3=NOCC(CN4CCCCC4)O3)CCNCC2)cn1` (stereo not shown) [compound 538], the “GBA EC1.5” value stood at 1 µM and the Emax stood at 147%.

For the molecule `CN(C)c1ccc(CC2(C3=NOCC(CN4CCCCC4)O3)CCNCC2)cn1` (stereo not shown) [compound 543], the “GBA EC1.5” value turned out to be 3 µM and the Emax worked out at 138%.

Turning to `COc1ncc(CC2(C3=NOCC(CN4CCCCC4)O3)CCNCC2)cc1Cl` (stereo not shown) [compound 545], the “GBA EC1.5” value is 1 µM and the Emax turned out to be 140%.

Regarding `c1cncc(CC2(C3=NOCC(CN4CCCCC4)O3)CCOCC2)c1` (stereo not shown) [compound 552], the “GBA EC1.5” value amounted to 50 µM and the Emax came to 115%.

Take `CN1CC[C@@H]2CN(CC3CON=C(C4(C)CCNCC4)O3)C[C@@H]21` (stereo partly shown) [compound 555]: the “GBA EC1.5” value came to 50 µM and the Emax came to 114%.

For the molecule `F[C@H]1CN[C@H](C2=NOCC(CN3CCCCC3)O2)C1` (stereo partly shown) [compound 556], the “GBA EC1.5” value was determined as 50 µM and the Emax was 114%.

With `N[C@@H]1CN[C@@H](C2=NOCC(CN3CCCCC3)O2)C1` (stereo partly shown) [compound 557], the “GBA EC1.5” value came to 50 µM and the Emax is 115%.

On to `C1CCN(CC2CON=C([C@]34CCC[C@H]3NCC4)O2)CC1` (stereo partly shown) [compound 558], for which the “GBA EC1.5” value is 4 µM and the Emax turned out to be 225%.

As to `N[C@H]1CN[C@@H](C2=NOCC(CN3CCCCC3)O2)C1` (stereo partly shown) [compound 564], the “GBA EC1.5” value amounted to 50 µM and the Emax stood at 104%.

As to `FC(F)(F)CN1CCCC(C2=NOCC(CN3CCCCC3)O2)C1` (stereo not shown) [compound 570], the “GBA EC1.5” value worked out at 50 µM and the Emax is 107%.

Consider `CN1CC2(C1)CN(CC1CON=C(C3(C)CCNCC3)O1)C2` (stereo not shown) [compound 580], for which the “GBA EC1.5” value turned out to be 50 µM and the Emax came to 105%.

With `Cn1cnc(CC2(C3=NOCC(CN4CCCCC4)O3)CCNCC2)c1` (stereo not shown) [compound 582], the “GBA EC1.5” value was 50 µM and the Emax worked out at 114%.

For the molecule `FC(F)(F)CN1CCCC(CC2=NOCC(CN3CCCCC3)O2)C1` (stereo not shown) [compound 587], the “GBA EC1.5” value was 50 µM and the Emax is 100%.

`CN1C[C@@H]2CN(CC3CON=C(C4(C)CCNCC4)O3)C[C@@H]2C1` (stereo partly shown) [compound 592]: the “GBA EC1.5” value was 50 µM and the Emax is 110%.

On to `N[C@@H]1CN[C@H](C2=NOCC(CN3CCCCC3)O2)C1` (stereo partly shown) [compound 596], for which the “GBA EC1.5” value came to 50 µM and the maximal response (Emax) turned out to be 105%.

With `N[C@H]1CN[C@H](C2=NOCC(CN3CCCCC3)O2)C1` (stereo partly shown) [compound 597], the “GBA EC1.5” value was found to be 50 µM and the Emax came out at 106%.

For `Fc1cccc(C2(C3=NOCC(CN4CCCCC4)O3)CCCNC2)n1` (stereo not shown) [compound 598], the “GBA EC1.5” value came to 1 µM and the Emax turned out to be 179%.

With `CN1CC(C2=NOCC(CN3CCCCC3)N2)CC1=O` (stereo not shown) [compound 601], the “GBA EC1.5” value worked out at 50 µM and the Emax is 111%.

With `CN1CCC2CN(CC3CON=C(C4(C)CCNCC4)O3)CC2C1` (stereo not shown) [compound 602], the “GBA EC1.5” value worked out at 50 µM and the Emax turned out to be 121%.

Turning to `CN1[C@@H]2CC[C@H]1CN(CC1CON=C(C3(C)CCNCC3)O1)C2` (stereo partly shown) [compound 603], the “GBA EC1.5” value is 50 µM and the maximum response (Emax) stood at 102%.

For `CN1CCO[C@@H]2CN(CC3CON=C(C4(C)CCNCC4)O3)C[C@@H]21` (stereo partly shown) [compound 604], the “GBA EC1.5” value was determined as 50 µM and the maximal response (Emax) is 119%.

For `CN(C)CC1CON=C(C2CCN(C)C2)O1` (stereo not shown) [compound 605], the “GBA EC1.5” value stood at 45 µM and the maximal effect (Emax) turned out to be 148%.

As for `Cn1ccnc1CC1(C2=NOCC(CN3CCCCC3)O2)CCNCC1` (stereo not shown) [compound 607], the “GBA EC1.5” value stood at 50 µM and the Emax amounted to 123%.

Regarding `OC1CCC(C2=NOCC(CN3CCCCC3)O2)CC1` (stereo not shown) [compound 609], the “GBA EC1.5” value turned out to be 50 µM and the Emax worked out at 119%.

As for `CN(C)CC1CON=C(C2CCNC2)O1` (stereo not shown) [compound 615], the “GBA EC1.5” value stood at 50 µM and the Emax came out at 108%.

For `O=C1CCC(C2=NOCC(CN3CCCCC3)O2)CN1` (stereo not shown) [compound 617], the “GBA EC1.5” value worked out at 50 µM and the Emax was determined as 113%.

As for `CN1CC2CC[C@H](C1)N2CC1CON=C(C2(C)CCNCC2)O1` (stereo partly shown) [compound 627], the “GBA EC1.5” value was 48 µM and the Emax worked out at 133%.

For `CN1CC2(C)CN(CC3CON=C(C4(C)CCNCC4)O3)CC2(C)C1` (stereo not shown) [compound 628], the “GBA EC1.5” value stood at 43 µM and the Emax amounted to 136%.

Consider `CN1CCC(C2=NOCC(CN3CCCCC3)O2)C1` (stereo not shown) [compound 629], for which the “GBA EC1.5” value amounted to 11 µM and the Emax was found to be 247%.

As to `c1csc(N2CCC(C3=NOCC(CN4CCCCC4)O3)CC2)n1` (stereo not shown) [compound 635], the “GBA EC1.5” value is 50 µM and the maximal response (Emax) was 135%.

Consider `FC1(F)CNCCC1C1=NOCC(CN2CCCCC2)O1` (stereo not shown) [compound 636], for which the “GBA EC1.5” value was 50 µM and the maximal effect (Emax) turned out to be 126%.

Take `O=C1NCCC1C1=NOCC(CN2CCCCC2)O1` (stereo not shown) [compound 637]: the “GBA EC1.5” value was determined as 50 µM and the Emax is 111%.

For `NC(=O)N1CCC(C2=NOCC(CN3CCCCC3)O2)CC1` (stereo not shown) [compound 639], the “GBA EC1.5” value is 50 µM and the Emax stood at 112%.

For `COc1ncc(CC2(C3=NOC(C)C(CN4CCCCC4)O3)CCN(C)C2)cc1Cl` (stereo not shown) [compound 646], the “GBA EC1.5” value is 50 µM and the Emax came out at 112%.

Consider `COc1ncc(CC2(C3=NOC(C)C(CN4CCCCC4)O3)CCNC2)cc1Cl` (stereo not shown) [compound 647], for which the “GBA EC1.5” value came to 50 µM and the Emax was found to be 103%.

On to `O=C1CC(C2=NOCC(CN3CCCCC3)O2)CCN1` (stereo not shown) [compound 649], for which the “GBA EC1.5” value came to 50 µM and the Emax stood at 103%.

As for `OC1(C2=NOCC(CN3CCCCC3)O2)CCNCC1` (stereo not shown) [compound 650], the “GBA EC1.5” value is 50 µM and the Emax amounted to 141%.

Take `c1cc2n(n1)CCC(C1=NOCC(CN3CCCCC3)O1)C2` (stereo not shown) [compound 656]: the “GBA EC1.5” value is 50 µM and the Emax is 123%.

In the case of `c1cnc(N2CCC(C3=NOCC(CN4CCCCC4)O3)CC2)nc1` (stereo not shown) [compound 658], the “GBA EC1.5” value is 50 µM and the Emax was 116%.

Take `c1ccc(N2CCCC(C3=NOCC(CN4CCCCC4)O3)C2)nc1` (stereo not shown) [compound 661]: the “GBA EC1.5” value was determined as 50 µM and the Emax was found to be 140%.

In the case of `c1nc2n(n1)CCC(C1=NOCC(CN3CCCCC3)O1)C2` (stereo not shown) [compound 662], the “GBA EC1.5” value came out at 50 µM and the Emax stood at 138%.

As to `CN1C(=O)CC(C2=NOCC(CN3CCCCC3)O2)c2ccccc21` (stereo not shown) [compound 664], the “GBA EC1.5” value turned out to be 50 µM and the Emax was 137%.

As to `O=c1[nH]nc2n1CCC(C1=NOCC(CN3CCCCC3)O1)C2` (stereo not shown) [compound 668], the “GBA EC1.5” value was found to be 50 µM and the Emax was 116%.

Take `CN(C)C(=O)N1CCCC(C2=NOCC(CN3CCCCC3)O2)C1` (stereo not shown) [compound 670]: the “GBA EC1.5” value came to 50 µM and the Emax worked out at 126%.

Take `CC(=O)NC1CCNCC1C1=NOCC(CN2CCCCC2)O1` (stereo not shown) [compound 671]: the “GBA EC1.5” value stood at 50 µM and the Emax was determined as 146%.

Turning to `c1ccc(N2CCC(C3=NOCC(CN4CCCCC4)O3)C2)nc1` (stereo not shown) [compound 672], the “GBA EC1.5” value came out at 50 µM and the maximal effect (Emax) is 127%.

Regarding `CC(=O)N1CCC(C2=NOCC(CN3CCCCC3)O2)C1` (stereo not shown) [compound 674], the “GBA EC1.5” value was determined as 50 µM and the Emax was found to be 123%.

As to `CN(C)C(=O)N1CCC(C2=NOCC(CN3CCCCC3)O2)C1` (stereo not shown) [compound 675], the “GBA EC1.5” value came out at 50 µM and the Emax was 102%.

For `CN1CCC(C2=NOCC(CN3CCCCC3)O2)CC1=O` (stereo not shown) [compound 676], the “GBA EC1.5” value stood at 50 µM and the Emax was 120%.

Regarding `c1ccc(N2CCC(C3=NOCC(CN4CCCCC4)O3)CC2)nc1` (stereo not shown) [compound 678], the “GBA EC1.5” value was 50 µM and the Emax was 106%.

The values above are taken from patent publication US20240390383A1, “DIOXAZINES AND THEIR USE IN TREATMENT OF GBA-RELATED DISEASES” (ZEVRA DENMARK A/S, priority 2021, published 2024).
